{"source": "ChEMBL document CHEMBL1201862", "about": "“PubChem BioAssay data set” (2004)", "key": {"Interleukin-8 [1]": {"biological_target": "T1, Interleukin-8 (Homo sapiens, UniProt P10145)", "T1 sequence (P10145 whole entry)": "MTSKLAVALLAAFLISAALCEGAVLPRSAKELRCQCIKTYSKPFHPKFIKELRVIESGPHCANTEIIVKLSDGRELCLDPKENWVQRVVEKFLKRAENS", "assay": "Dose Response confirmation of uHTS small molecule hits for cystic fibrosis induced NFkb Inhibitors in a PAF-induced IL8 counterscreen.", "assay_type": "functional", "settings": "read-out: IC50_Mean"}, "Interleukin-8 [2]": {"biological_target": "T1, Interleukin-8", "assay": "Dose Response confirmation of uHTS small molecule hits for cystic fibrosis induced NFkb Inhibitors in a TNFa-induced IL8 counterscreen.", "assay_type": "functional", "settings": "read-out: IC50_Mean"}, "[3]": {"biological_target": "Adenosylmethionine-8-amino-7-oxononanoate aminotransferase (Mycobacterium tuberculosis, UniProt P9WQ81)", "sequence (P9WQ81 whole entry)": "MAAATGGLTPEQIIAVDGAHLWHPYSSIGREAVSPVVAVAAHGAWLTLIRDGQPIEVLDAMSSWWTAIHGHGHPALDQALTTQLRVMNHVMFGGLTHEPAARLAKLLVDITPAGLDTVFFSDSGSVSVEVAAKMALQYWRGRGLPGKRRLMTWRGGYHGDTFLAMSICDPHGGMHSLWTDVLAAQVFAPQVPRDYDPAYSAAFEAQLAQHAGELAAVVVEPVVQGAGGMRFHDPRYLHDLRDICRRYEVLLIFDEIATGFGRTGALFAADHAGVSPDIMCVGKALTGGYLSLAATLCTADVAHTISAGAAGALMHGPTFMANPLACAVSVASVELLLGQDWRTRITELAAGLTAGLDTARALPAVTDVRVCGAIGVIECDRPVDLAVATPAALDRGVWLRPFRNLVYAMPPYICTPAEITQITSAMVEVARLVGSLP", "assay": "Mycobacterium tuberculosis BioA enzyme inhibitor Measured in Biochemical System Using Plate Reader - 2163-02_Inhibitor_Dose_CherryPick_Activity.", "assay_type": "functional, Mycobacterium tuberculosis UT205"}, "Genome polyprotein": {"biological_target": "Genome polyprotein (dengue virus type 2, UniProt P29990)", "sequence (P29990 2492-3391 limits assumed)": "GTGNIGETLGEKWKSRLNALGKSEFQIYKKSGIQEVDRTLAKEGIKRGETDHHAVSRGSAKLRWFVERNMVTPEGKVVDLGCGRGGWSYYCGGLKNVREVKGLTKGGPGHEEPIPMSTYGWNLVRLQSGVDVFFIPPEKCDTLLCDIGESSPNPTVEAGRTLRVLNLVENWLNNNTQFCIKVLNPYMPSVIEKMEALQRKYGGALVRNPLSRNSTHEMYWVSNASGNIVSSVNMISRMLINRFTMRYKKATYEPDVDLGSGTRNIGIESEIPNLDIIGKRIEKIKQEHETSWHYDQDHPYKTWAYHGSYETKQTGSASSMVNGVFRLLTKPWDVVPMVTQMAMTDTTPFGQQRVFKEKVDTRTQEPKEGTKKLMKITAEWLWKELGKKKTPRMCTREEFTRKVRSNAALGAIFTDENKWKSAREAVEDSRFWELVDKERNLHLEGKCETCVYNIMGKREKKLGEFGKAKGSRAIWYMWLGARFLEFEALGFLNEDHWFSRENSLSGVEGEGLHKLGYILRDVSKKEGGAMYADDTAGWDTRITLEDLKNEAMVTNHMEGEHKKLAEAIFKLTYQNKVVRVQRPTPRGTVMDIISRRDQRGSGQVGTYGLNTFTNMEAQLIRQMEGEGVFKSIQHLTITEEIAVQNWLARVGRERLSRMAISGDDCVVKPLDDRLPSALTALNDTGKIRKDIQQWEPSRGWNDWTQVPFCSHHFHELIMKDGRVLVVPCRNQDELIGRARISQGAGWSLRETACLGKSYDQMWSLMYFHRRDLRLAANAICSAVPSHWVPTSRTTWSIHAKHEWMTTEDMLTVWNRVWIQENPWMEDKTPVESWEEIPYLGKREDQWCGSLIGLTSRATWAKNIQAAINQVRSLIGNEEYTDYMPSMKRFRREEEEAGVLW", "assay": "Dengue-2 NS5 methyltransferase inhibitors, primary screen, biochemical, confirmation dose response (AID 588689)", "assay_type": "functional"}, "[4]": {"biological_target": "T2, Sentrin-specific protease 7 (Homo sapiens, UniProt Q9BQF6)", "T2 sequence (Q9BQF6 whole entry)": "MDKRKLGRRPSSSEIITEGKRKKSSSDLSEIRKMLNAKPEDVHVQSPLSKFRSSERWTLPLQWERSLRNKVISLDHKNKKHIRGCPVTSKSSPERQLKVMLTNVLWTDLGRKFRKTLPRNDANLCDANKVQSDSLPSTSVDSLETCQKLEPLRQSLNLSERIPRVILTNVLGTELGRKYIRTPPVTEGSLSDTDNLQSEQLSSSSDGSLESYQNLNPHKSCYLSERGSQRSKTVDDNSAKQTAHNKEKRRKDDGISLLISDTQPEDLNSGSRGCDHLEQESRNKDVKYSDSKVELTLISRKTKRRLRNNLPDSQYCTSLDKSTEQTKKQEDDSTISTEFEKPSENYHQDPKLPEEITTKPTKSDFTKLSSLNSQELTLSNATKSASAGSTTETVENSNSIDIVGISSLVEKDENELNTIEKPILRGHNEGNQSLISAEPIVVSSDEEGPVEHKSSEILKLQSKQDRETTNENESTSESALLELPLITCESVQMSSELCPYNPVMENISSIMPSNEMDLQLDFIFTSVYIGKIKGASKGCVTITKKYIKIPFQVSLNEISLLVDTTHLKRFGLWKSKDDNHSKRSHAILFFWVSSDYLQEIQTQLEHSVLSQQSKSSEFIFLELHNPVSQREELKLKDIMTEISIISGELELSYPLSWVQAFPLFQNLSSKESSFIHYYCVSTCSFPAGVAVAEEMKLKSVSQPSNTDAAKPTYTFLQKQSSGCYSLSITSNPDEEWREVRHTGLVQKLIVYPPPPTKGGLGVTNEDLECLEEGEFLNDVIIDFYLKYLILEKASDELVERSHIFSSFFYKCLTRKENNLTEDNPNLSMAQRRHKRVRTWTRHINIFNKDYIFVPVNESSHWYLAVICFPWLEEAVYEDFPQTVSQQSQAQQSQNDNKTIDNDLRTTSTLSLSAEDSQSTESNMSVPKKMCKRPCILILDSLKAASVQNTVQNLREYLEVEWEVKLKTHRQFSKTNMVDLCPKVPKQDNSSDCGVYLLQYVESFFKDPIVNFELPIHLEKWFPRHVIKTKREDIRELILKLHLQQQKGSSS", "assay": "SENP7 protease inhibitors, SAR follow-up, biochemical, luminescence, set 2 (AID 588600)", "assay_type": "functional"}, "Caspase-3 [5]": {"biological_target": "T3, Caspase-3 (Homo sapiens, UniProt P42574)", "T3 sequence (P42574 whole entry)": "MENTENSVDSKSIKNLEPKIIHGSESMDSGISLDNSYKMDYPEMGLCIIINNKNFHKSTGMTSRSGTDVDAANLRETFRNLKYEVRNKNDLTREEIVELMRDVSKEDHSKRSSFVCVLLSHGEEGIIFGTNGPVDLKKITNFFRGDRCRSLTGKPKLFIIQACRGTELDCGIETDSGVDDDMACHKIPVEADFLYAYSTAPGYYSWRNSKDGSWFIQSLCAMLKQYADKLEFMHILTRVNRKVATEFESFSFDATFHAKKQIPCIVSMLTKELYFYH", "assay": "caspase-3 inhibitors as off-family protease, SAR follow-up, selectivity assay for SENP protease inhibitor project, biochemical, luminescence, set 2 (AID 588599)", "assay_type": "functional"}, "[6]": {"biological_target": "T4, Sentrin-specific protease 8 (Homo sapiens, UniProt Q96LD8)", "T4 sequence (Q96LD8 whole entry)": "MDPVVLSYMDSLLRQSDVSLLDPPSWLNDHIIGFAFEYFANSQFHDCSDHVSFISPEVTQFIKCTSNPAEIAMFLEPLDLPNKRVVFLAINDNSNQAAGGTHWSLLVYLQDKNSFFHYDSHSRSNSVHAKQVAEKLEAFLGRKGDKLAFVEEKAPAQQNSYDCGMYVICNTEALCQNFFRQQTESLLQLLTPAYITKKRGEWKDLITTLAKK", "assay": "SENP8 protease inhibitors, SAR follow-up, biochemical, luminescence, set 2 (AID 588601)", "assay_type": "functional"}, "[7]": {"biological_target": "T5, Sentrin-specific protease 6 (Homo sapiens, UniProt Q9GZR1)", "T5 sequence (Q9GZR1 whole entry)": "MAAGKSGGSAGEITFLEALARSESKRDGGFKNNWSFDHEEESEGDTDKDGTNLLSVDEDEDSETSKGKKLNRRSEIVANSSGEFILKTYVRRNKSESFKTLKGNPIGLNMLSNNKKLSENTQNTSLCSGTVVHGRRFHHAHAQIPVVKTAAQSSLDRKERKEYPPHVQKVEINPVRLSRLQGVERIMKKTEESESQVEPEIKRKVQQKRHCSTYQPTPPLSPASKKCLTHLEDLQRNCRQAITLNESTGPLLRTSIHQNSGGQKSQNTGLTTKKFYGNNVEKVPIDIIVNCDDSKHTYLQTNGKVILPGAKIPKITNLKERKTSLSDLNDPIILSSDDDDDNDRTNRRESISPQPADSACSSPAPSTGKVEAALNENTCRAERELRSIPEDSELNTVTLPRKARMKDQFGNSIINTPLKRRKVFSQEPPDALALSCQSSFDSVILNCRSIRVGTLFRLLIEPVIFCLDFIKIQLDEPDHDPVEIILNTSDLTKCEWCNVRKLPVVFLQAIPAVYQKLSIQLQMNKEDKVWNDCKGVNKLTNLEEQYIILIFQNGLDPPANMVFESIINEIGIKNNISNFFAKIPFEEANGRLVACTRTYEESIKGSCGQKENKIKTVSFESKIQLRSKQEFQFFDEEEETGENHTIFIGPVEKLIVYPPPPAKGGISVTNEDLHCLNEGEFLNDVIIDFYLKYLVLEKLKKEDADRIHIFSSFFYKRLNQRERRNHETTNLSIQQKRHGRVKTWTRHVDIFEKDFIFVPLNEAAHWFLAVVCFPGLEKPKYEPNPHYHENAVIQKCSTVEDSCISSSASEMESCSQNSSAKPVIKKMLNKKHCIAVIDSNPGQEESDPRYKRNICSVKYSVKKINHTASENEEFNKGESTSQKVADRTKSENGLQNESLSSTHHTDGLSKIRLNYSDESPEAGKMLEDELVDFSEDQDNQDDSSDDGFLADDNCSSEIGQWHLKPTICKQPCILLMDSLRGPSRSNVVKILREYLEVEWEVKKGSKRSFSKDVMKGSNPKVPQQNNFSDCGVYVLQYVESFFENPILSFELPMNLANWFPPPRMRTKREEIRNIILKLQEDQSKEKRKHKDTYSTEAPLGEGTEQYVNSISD", "assay": "SENP6 protease inhibitors, SAR follow-up, biochemical, luminescence, set 2 (AID 588598)", "assay_type": "functional"}, "[8]": {"biological_target": "T4, Sentrin-specific protease 8", "assay": "SENP8 protease inhibitors, SAR follow-up, biochemical, luminescence (AID 504501)", "assay_type": "functional"}, "[9]": {"biological_target": "T5, Sentrin-specific protease 6", "assay": "SAR Analysis of small molecule inhibitors of Sentrin-specific protease 6 (SENP6) using a Luminescent assay. [Related pubchem assays (depositor defined):AID2582, AID2599]", "assay_type": "functional"}, "Caspase-3 [10]": {"biological_target": "T3, Caspase-3", "assay": "SAR Analysis of small molecule inhibitors of Sentrin-specific proteases (SENPs) using a Caspase-3 Selectivity assay. [Related pubchem assays (depositor defined):AID2540, AID2599, AID434973, AID489001]", "assay_type": "functional"}, "[11]": {"biological_target": "T2, Sentrin-specific protease 7", "assay": "SENP7 protease inhibitors, SAR follow-up, biochemical, luminescence (AID 504497)", "assay_type": "functional"}, "[12]": {"biological_target": "DNA dC->dU-editing enzyme APOBEC-3A (Homo sapiens, UniProt P31941)", "sequence (P31941 whole entry)": "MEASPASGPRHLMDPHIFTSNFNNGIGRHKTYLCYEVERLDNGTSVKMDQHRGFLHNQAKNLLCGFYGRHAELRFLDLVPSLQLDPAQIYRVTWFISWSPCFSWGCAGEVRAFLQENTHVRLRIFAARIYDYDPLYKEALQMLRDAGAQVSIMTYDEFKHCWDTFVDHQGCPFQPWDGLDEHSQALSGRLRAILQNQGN", "assay": "SAR analysis of small molecule inhibitors of APOBEC3A DNA Deaminase via a fluorescence-based single-stranded DNA deaminase assay.", "assay_type": "functional", "settings": "read-out: IC50_Mean"}, "[13]": {"biological_target": "DNA dC->dU-editing enzyme APOBEC-3G (Homo sapiens, UniProt Q9HC16)", "sequence (Q9HC16 whole entry)": "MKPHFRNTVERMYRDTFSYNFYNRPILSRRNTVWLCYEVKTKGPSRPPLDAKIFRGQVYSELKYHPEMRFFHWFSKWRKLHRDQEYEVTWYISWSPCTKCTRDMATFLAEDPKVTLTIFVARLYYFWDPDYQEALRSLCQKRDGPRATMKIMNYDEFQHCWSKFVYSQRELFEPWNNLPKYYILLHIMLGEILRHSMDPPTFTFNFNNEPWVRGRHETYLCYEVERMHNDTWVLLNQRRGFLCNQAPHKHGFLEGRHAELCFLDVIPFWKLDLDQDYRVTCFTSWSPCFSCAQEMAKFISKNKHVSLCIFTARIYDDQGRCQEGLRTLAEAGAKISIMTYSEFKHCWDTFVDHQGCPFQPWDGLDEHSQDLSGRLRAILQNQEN", "assay": "APOBEC3G deaminase inhibitors, SAR follow-up, biochemical, fluorescence, single-stranded DNA substrate (AID 602136)", "assay_type": "functional", "settings": "read-out: IC50_Mean"}, "[14]": {"assay": "ARNT/TACC3 interaction disruptors, potency, confirmation, biochemical, AlphaScreen, cherry-picked samples (AID 651703);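 note: His-tagged ARNT PAS-B domain paired with GST-TACC3 E629A dimer coactivator fragment; potency of inhibitors that break up the complex and lower AlphaScreen signal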", "assay_type": "functional, Homo sapiens"}, "[15]": {"biological_target": "Aryl hydrocarbon receptor (Homo sapiens, UniProt P35869)", "sequence (P35869 whole entry)": "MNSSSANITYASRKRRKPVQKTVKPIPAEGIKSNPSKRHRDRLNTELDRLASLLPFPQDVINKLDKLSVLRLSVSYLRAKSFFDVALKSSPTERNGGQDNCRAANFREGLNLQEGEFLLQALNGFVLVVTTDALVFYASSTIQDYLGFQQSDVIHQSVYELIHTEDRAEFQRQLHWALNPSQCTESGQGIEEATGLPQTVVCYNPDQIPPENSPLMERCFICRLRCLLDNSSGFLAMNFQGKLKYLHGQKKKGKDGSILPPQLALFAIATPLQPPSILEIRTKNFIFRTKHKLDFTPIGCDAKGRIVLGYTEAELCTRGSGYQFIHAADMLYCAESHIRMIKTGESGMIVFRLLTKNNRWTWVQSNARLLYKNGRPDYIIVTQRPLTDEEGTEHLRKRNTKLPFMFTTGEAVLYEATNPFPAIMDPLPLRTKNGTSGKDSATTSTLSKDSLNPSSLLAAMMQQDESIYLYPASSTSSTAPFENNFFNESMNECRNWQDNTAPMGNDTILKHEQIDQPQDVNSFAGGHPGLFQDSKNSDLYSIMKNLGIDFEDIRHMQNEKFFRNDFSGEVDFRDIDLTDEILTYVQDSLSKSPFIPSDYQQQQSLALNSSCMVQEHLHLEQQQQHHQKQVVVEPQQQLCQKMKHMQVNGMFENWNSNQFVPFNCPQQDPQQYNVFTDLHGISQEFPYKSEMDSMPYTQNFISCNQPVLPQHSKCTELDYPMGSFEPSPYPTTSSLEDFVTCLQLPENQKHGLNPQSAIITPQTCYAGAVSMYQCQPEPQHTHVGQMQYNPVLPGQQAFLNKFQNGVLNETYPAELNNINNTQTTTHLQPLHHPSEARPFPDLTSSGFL", "settings": "Potency"}}, "note": "Calls of active or inactive are those of the source."}
{"smiles": "C=CCn1c(Oc2ccccc2F)nc2c1c(=O)n(C)c(=O)n2C", "values": [{"measurement": "IC50", "setting": "Interleukin-8 [1]", "result": "51.1 µM (inactive)"}, {"measurement": "IC50", "setting": "Interleukin-8 [2]", "result": "> 79 µM (inactive)"}]}
{"smiles": "O=C(O)CN1C(=O)/C(=C\\c2cc(Br)ccc2OCc2ccc([N+](=O)[O-])cc2)SC1=S", "values": [{"measurement": "AC50", "setting": "[3]", "result": "11.7 µM (active)"}, {"measurement": "IC50", "setting": "Genome polyprotein", "result": "30.3 µM (active)"}]}
{"smiles": "COc1cccc(-n2nnc3c(N4CCN(C(=O)C(=O)c5c(C)[nH]c6ccccc56)CC4)ncnc32)c1", "values": [{"measurement": "IC50", "setting": "[4]", "result": "> 99 µM (inactive)"}, {"measurement": "IC50", "setting": "Caspase-3 [5]", "result": "> 99 µM (inactive)"}, {"measurement": "IC50", "setting": "[6]", "result": "> 99 µM (inactive)"}, {"measurement": "IC50", "setting": "[7]", "result": "> 99 µM (inactive)"}]}
{"smiles": "CCCCc1ccc2nc(NC(=O)c3ccc(Br)o3)sc2c1", "values": [{"measurement": "IC50", "setting": "[8]", "result": "> 99 µM (inactive)"}, {"measurement": "IC50", "setting": "[9]", "result": "> 99 µM (inactive)"}, {"measurement": "IC50", "setting": "[4]", "result": "8.4 µM (active)"}, {"measurement": "IC50", "setting": "Caspase-3 [10]", "result": "11 µM (active)"}, {"measurement": "IC50", "setting": "Caspase-3 [5]", "result": "5.94 µM (active)"}, {"measurement": "IC50", "setting": "[6]", "result": "5.7 µM (active)"}, {"measurement": "IC50", "setting": "[7]", "result": "6.66 µM (active)"}, {"measurement": "IC50", "setting": "[11]", "result": "3.8 µM (active)"}]}
{"smiles": "COc1ccc(-c2nnc(SCc3nc4ccsc4c(=O)[nH]3)[nH]2)cc1", "values": [{"measurement": "IC50", "setting": "[12]", "result": "> 99 µM (inactive)"}, {"measurement": "IC50", "setting": "[13]", "result": "66.4 µM (inactive)"}]}
{"smiles": "C/C(=N\\NC(=O)c1ccncc1)C12CC3CC(CC(C3)C1)C2", "values": [{"measurement": "AC50", "setting": "[14]", "result": "88.3 µM (active)"}]}
{"smiles": "CC(C)OC(=O)Nc1cccc(Cl)c1", "note": "[CHLORPROPHAM]", "values": [{"measurement": "AC50", "setting": "[15]", "result": "63.1 µM (inconclusive)"}]}
